# From patent US20220167618A1, “PESTICIDALLY ACTIVE AZOLE-AMIDE COMPOUNDS” (SYNGENTA CROP PROTECTION AG, priority 2019, published 2022)
# How the values were obtained:
# [1] = tested on: Chilo suppressalis (Striped Rice Stemborer); assay: Example B4: Chilo suppressalis (striped rice stemborer), artificial diet; assay type: in vivo; details: 144 h, application rate 200 ppm, L2 larvae, 6 days after infestation, read-out: control in at least one of the three categories (mortality, anti-feedant or growth inhibition)
# Protocol: Example B4: Chilo suppressalis (Striped Rice Stemborer)
# 24-well microtiter plates with artificial diet were treated with aqueous test solutions prepared from 10′000 ppm DMSO stock solutions by pipetting. After drying, the plates were infested with L2 larvae (6-8 per well). The samples were assessed for mortality, anti-feeding effect, and growth inhibition in comparison to untreated samples 6 days after infestation. Control of Chilo suppressalis by a test sample is given when at least one of the categories mortality, anti-feedant effect, and growth inhibition is higher than the untreated sample.
# [2] = tested on: Diabrotica balteata (Corn Root Worm); assay: Example B1: Diabrotica balteata (corn root worm), sprayed maize sprouts; assay type: in vivo; details: 96 h, application rate 200 ppm, L2 larvae, 4 days after infestation, read-out: control in at least one of the two categories (mortality or growth inhibition)
# Protocol: Example B1: Diabrotica balteata (Corn Root Worm)
# Maize sprouts placed onto an agar layer in 24-well microtiter plates were treated with aqueous test solutions prepared from 10′000 ppm DMSO stock solutions by spraying. After drying, the plates were infested with L2 larvae (6 to 10 per well). The samples were assessed for mortality and growth inhibition in comparison to untreated samples 4 days after infestation.
# [3] = tested on: Plutella xylostella (Diamondback Moth); assay: Example B13: Plutella xylostella (diamondback moth), artificial diet, 96-well; assay type: in vivo; details: 216 h, application rate 500 ppm, eggs/L1 larvae, 9 days after infestation
# Protocol: Example B13: Plutella xylostella (Diamondback Moth)
# 96-well microtiter plates containing artificial diet were treated with aqueous test solutions, prepared from 10′000 ppm DMSO stock solutions, by a liquid handling robot. After drying, eggs (˜30 per well) were infested onto a netted lid which was suspended above the diet. The eggs hatch and L1 larvae move down to the diet. The samples were assessed for mortality 9 days after infestation.
# [4] = tested on: Plutella xylostella (Diamond Back Moth); assay: Example B5: Plutella xylostella (diamond back moth), artificial diet, 24-well; assay type: in vivo; details: 192 h, application rate 200 ppm, eggs, 8 days after infestation, read-out: control in at least one of the two categories (mortality or growth inhibition)
# Protocol: Example B5: Plutella xylostella (Diamond Back Moth)
# 24-well microtiter plates with artificial diet were treated with aqueous test solutions prepared from 10′000 ppm DMSO stock solutions by pipetting. After drying, Plutella eggs were pipetted through a plastic stencil onto a gel blotting paper and the plate was closed with it. The samples were assessed for mortality and growth inhibition in comparison to untreated samples 8 days after infestation.
# [5] = tested on: Spodoptera littoralis (Egyptian Cotton Leaf Worm); assay: Example B9: Spodoptera littoralis (Egyptian cotton leaf worm), sprayed cotton leaf discs; assay type: in vivo; details: foliar, 72 h, application rate 200 ppm, L1 larvae, 3 days after infestation, read-out: control in at least one of the three categories (mortality, anto-feedant or growth inhibition)
# [6] = tested on: Euschistus heros (Neotropical Brown Stink Bug); assay: Example B2: Euschistus heros (neotropical brown stink bug), sprayed soybean leaves; assay type: in vivo; details: 120 h, application rate 200 ppm, N2 nymphs, 5 days after infestation, read-out: control in at least one of the two categories (mortality or growth inhibition)
# Protocol: Example B2: Euschistus heros (Neotropical Brown Stink Bug)
# Soybean leaves on agar in 24-well microtiter plates were sprayed with aqueous test solutions prepared from 10′000 ppm DMSO stock solutions. After drying the leaves were infested with N2 nymphs. The samples were assessed for mortality and growth inhibition in comparison to untreated samples 5 days after infestation.
SMILES,melting point,"percent control (mortality, anti-feedant or growth inhibition) at 200 ppm [1]",percent control (mortality or growth inhibition) at 200 ppm [2],mortality at 500 ppm [3],percent control (mortality or growth inhibition) at 200 ppm [4],"percent control (mortality, anti-feedant or growth inhibition) at 200 ppm [5]",percent control (mortality or growth inhibition) at 200 ppm [6]
"CC(NC(=O)c1cc(C(F)(F)F)nc(C2(C#N)CC2)c1)c1nc(Br)nn1-c1ccc(OC(F)F)cn1 (stereo not drawn) [Compound P30, N-[1-[5-bromo-2-[5-(difluoromethoxy)-2-pyridyl]-1,2,4-triazol-3-yl]ethyl]-2-(1-cyanocyclopropyl)-6-(trifluoromethyl)pyridine-4-carboxamide]",152 to 154 °C,,,,,,
"CC(NC(=O)c1cc(C2CC2(F)F)cc(C(F)(F)F)c1)c1nc(Br)nn1-c1ccc(C#N)cn1 (stereo not drawn) [Compound P6, N-[1-[5-bromo-2-(5-cyano-2-pyridyl)-1,2,4-triazol-3-yl]ethyl]-3-(2,2-difluorocyclopropyl)-5-(trifluoromethyl)benzamide]",,≥ 80%,≥ 80%,≥ 80%,≥ 80%,≥ 80%,
"CC(NC(=O)c1cc(C(F)(F)F)cc(C(F)(F)C2CC2)c1)c1nc(Br)nn1-c1ccc(OCC(F)F)cn1 (stereo not drawn) [Compound P31, N-[1-[5-bromo-2-[5-(2,2-difluoroethoxy)-2-pyridyl]-1,2,4-triazol-3-yl]ethyl]-3-[cyclopropyl(difluoro)methyl]-5-(trifluoromethyl)benzamide]",140 to 142 °C,,,,,,
"CC(NC(=O)c1cc(C(F)(F)F)nc(C2(C#N)CC2)c1)c1nc(Br)nn1-c1ncc(OCC(F)(F)F)cn1 (stereo not drawn) [Compound P34, N-[1-[5-bromo-2-[5-(2,2,2-trifluoroethoxy)pyrimidin-2-yl]-1,2,4-triazol-3-yl]ethyl]-2-(1-cyanocyclopropyl)-6-(trifluoromethyl)pyridine-4-carboxamide]",157 to 159 °C,,,,,,
"CC(NC(=O)c1cc(C2CC2(F)F)cc(C(F)(F)F)c1)c1nc(Br)nn1-c1ncc(OC(F)F)cn1 (stereo not drawn) [Compound P12, N-[1-[5-bromo-2-[5-(difluoromethoxy)pyrimidin-2-yl]-1,2,4-triazol-3-yl]ethyl]-3-(2,2-difluorocyclopropyl)-5-(trifluoromethyl)benzamide]",,≥ 80%,≥ 80%,≥ 80%,≥ 80%,≥ 80%,
"CC(NC(=O)c1cc(C2CC2(F)F)cc(C(F)(F)F)c1)c1nc(Br)nn1-c1ccc(OCC(F)F)cn1 (stereo not drawn) [Compound P22, N-[1-[5-bromo-2-[5-(2,2-difluoroethoxy)-2-pyridyl]-1,2,4-triazol-3-yl]ethyl]-3-(2,2-difluorocyclopropyl)-5-(trifluoromethyl)benzamide]",,≥ 80%,,≥ 80%,≥ 80%,≥ 80%,
"CC(NC(=O)c1cc(C(F)(F)F)cc(C(C)(C)C#N)c1)c1nc(Br)nn1-c1ccc(OCC(F)F)cn1 (stereo not drawn) [Compound P40, N-[1-[5-bromo-2-[5-(2,2-difluoroethoxy)-2-pyridyl]-1,2,4-triazol-3-yl]ethyl]-3-(1-cyano-1-methyl-ethyl)-5-(trifluoromethyl)benzamide]",,≥ 80%,,≥ 80%,≥ 80%,≥ 80%,
"CC(NC(=O)c1cc(C2CC2)cc(C(F)(F)F)c1)c1nc(Br)nn1-c1ncc(OCC(F)(F)F)cn1 (stereo not drawn) [Compound P5, N-[1-[5-bromo-2-[5-(2,2,2-trifluoroethoxy)pyrimidin-2-yl]-1,2,4-triazol-3-yl]ethyl]-3-cyclopropyl-5-(trifluoromethyl)benzamide]",,≥ 80%,≥ 80%,≥ 80%,≥ 80%,≥ 80%,
"CC(NC(=O)c1cc(C(F)(F)F)nc(C2(C#N)CC2)c1)c1nc(Br)nn1-c1ccc(OCC(F)(F)F)cn1 (stereo not drawn) [Compound P33, N-[1-[5-bromo-2-[5-(2,2,2-trifluoroethoxy)-2-pyridyl]-1,2,4-triazol-3-yl]ethyl]-2-(1-cyanocyclopropyl)-6-(trifluoromethyl)pyridine-4-carboxamide]",82 to 84 °C,,,,,,
"CC(NC(=O)c1cc(C(F)(F)F)nc(C2(C#N)CC2)c1)c1nc(Br)nn1-c1ccc(OCC(F)F)cn1 (stereo not drawn) [Compound P32, N-[1-[5-bromo-2-[5-(2,2-difluoroethoxy)-2-pyridyl]-1,2,4-triazol-3-yl]ethyl]-2-(1-cyanocyclopropyl)-6-(trifluoromethyl)pyridine-4-carboxamide]",147 to 149 °C,,,,,,
"CC(NC(=O)c1cc(C2CC2)cc(C(F)(F)F)c1)c1nc(Br)nn1-c1ncc(OCC(F)F)cn1 (stereo not drawn) [Compound P18, N-[1-[5-bromo-2-[5-(2,2-difluoroethoxy)pyrimidin-2-yl]-1,2,4-triazol-3-yl]ethyl]-3-cyclopropyl-5-(trifluoromethyl)benzamide]",,≥ 80%,≥ 80%,≥ 80%,≥ 80%,≥ 80%,
"CC(NC(=O)c1cc(C(F)(F)F)cc(S(=O)(=O)C(F)(F)F)c1)c1nc(Br)nn1-c1ncc(OCC(F)F)cn1 (stereo not drawn) [Compound P24, N-[1-[5-bromo-2-[5-(2,2-difluoroethoxy)pyrimidin-2-yl]-1,2,4-triazol-3-yl]ethyl]-3-(trifluoromethyl)-5-(trifluoromethylsulfonyl) benzamide]",,≥ 80%,,≥ 80%,≥ 80%,≥ 80%,
"CC(NC(=O)c1cc(C2CC2(F)F)cc(C(F)(F)F)c1)c1nc(Br)nn1-c1ncc(OCC(F)F)cn1 (stereo not drawn) [Compound P8, N-[1-[5-bromo-2-[5-(2,2-difluoroethoxy)pyrimidin-2-yl]-1,2,4-triazol-3-yl]ethyl]-3-(2,2-difluorocyclopropyl)-5-(trifluoromethyl)benzamide]",,≥ 80%,≥ 80%,≥ 80%,≥ 80%,≥ 80%,
"CC(NC(=O)c1cc(C2CC2)cc(C(F)(F)F)c1)c1nc(Br)nn1-c1ccc(OCC(F)F)cn1 (stereo not drawn) [Compound P27, N-[1-[5-bromo-2-[5-(2,2-difluoroethoxy)-2-pyridyl]-1,2,4-triazol-3-yl]ethyl]-3-cyclopropyl-5-(trifluoromethyl)benzamide]",,≥ 80%,,≥ 80%,≥ 80%,,
"CC(NC(=O)c1cc(C(F)(F)F)cc(C(C)(C)C#N)c1)c1nc(Br)nn1-c1ncc(OCC(F)F)cn1 (stereo not drawn) [Compound P38, N-[1-[5-bromo-2-[5-(2,2-difluoroethoxy)pyrimidin-2-yl]-1,2,4-triazol-3-yl]ethyl]-3-(1-cyano-1-methyl-ethyl)-5-(trifluoromethyl)benzamide]",,≥ 80%,≥ 80%,,≥ 80%,≥ 80%,
"CC(NC(=O)c1cc(C(F)(F)F)cc(C(C)(C)C#N)c1)c1nc(Br)nn1-c1ccc(OC(F)F)cn1 (stereo not drawn) [Compound P37, N-[1-[5-bromo-2-[5-(difluoromethoxy)-2-pyridyl]-1,2,4-triazol-3-yl]ethyl]-3-(1-cyano-1-methyl-ethyl)-5-(trifluoromethyl)benzamide]",,≥ 80%,≥ 80%,,≥ 80%,≥ 80%,≥ 80%
